Values joined by “and” are separate entries in the source; they are usually repeats but may differ in a detail not shown here. Identical values can stand only once.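 Dose response: 5 concentrations. Exposure: 48 h. Format: 96-well plates. Endpoint: linear interpolation; highest concentration if not reached. GI50 marks 50% less growth. TGI: total growth inhibition.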
Columns and labels:
Test in all cases: growth of human tumour cells (NCI), 48 h; in the data active = GI50 below about 0.43 µM; inactive = the rest
786-0 renal = test system: 786-0 renal
A549 NSCLC = test system: A549 NSCLC
ACHN renal = test system: ACHN renal
BT-549 breast = test system: BT-549 breast
CCRF-CEM leukemia = test system: CCRF-CEM leukemia
DU-145 prostate = test system: DU-145 prostate
EKVX NSCLC = test system: EKVX NSCLC
HCC-2998 colon = test system: HCC-2998 colon
HCT-116 colon = test system: HCT-116 colon
HCT-15 colon = test system: HCT-15 colon
HL-60(TB) leukemia = test system: HL-60(TB) leukemia
HOP-62 NSCLC = test system: HOP-62 NSCLC
HOP-92 NSCLC = test system: HOP-92 NSCLC
HS 578T breast = test system: HS 578T breast
HT29 colon = test system: HT29 colon
IGROV1 ovarian = test system: IGROV1 ovarian
K-562 leukemia = test system: K-562 leukemia
KM12 colon = test system: KM12 colon
LOX IMVI melanoma = test system: LOX IMVI melanoma
M14 melanoma = test system: M14 melanoma
MALME-3M melanoma = test system: MALME-3M melanoma
MCF7 breast = test system: MCF7 breast
MDA-MB-231 breast = test system: MDA-MB-231 breast
MDA-MB-435 = test system: MDA-MB-435
MOLT-4 leukemia = test system: MOLT-4 leukemia
NCI-H226 lung = test system: NCI-H226 lung
NCI-H23 lung = test system: NCI-H23 lung
NCI-H460 lung = test system: NCI-H460 lung
NCI-H522 lung = test system: NCI-H522 lung
NCI/ADR-RES ovarian = test system: NCI/ADR-RES ovarian
OVCAR-4 ovarian = test system: OVCAR-4 ovarian
OVCAR-5 ovarian = test system: OVCAR-5 ovarian
OVCAR-8 ovarian = test system: OVCAR-8 ovarian
PC-3 prostate = test system: PC-3 prostate
RPMI-8226 leukemia = test system: RPMI-8226 leukemia
SF-268 CNS = test system: SF-268 CNS
SF-295 CNS = test system: SF-295 CNS
SF-539 CNS = test system: SF-539 CNS
SK-MEL-2 melanoma = test system: SK-MEL-2 melanoma
SK-MEL-28 melanoma = test system: SK-MEL-28 melanoma
SK-MEL-5 melanoma = test system: SK-MEL-5 melanoma
SK-OV-3 ovarian = test system: SK-OV-3 ovarian
SN12C renal = test system: SN12C renal
SNB-19 CNS = test system: SNB-19 CNS
SNB-75 CNS = test system: SNB-75 CNS
SR leukemia = test system: SR leukemia
SW-620 colon = test system: SW-620 colon
T-47D breast = test system: T-47D breast
TK-10 renal = test system: TK-10 renal
U251 CNS = test system: U251 CNS
UACC-257 melanoma = test system: UACC-257 melanoma
UACC-62 melanoma = test system: UACC-62 melanoma
UO-31 renal = test system: UO-31 renal

COC(=O)[C@@H](C)C[C@H](Cc1ccccc1)NC(=O)c1cccc([C@@H](C[C@H](C(C)C)N(C)C(=O)[C@@H](NC(=O)[C@H]2CCCCN2C)C2CC2)OC(C)=O)n1
0.0358 µM: TGI (M14 melanoma)
> 33.3 µM: TGI (T-47D breast)
4.35 µM and 24 µM: TGI (MDA-MB-231 breast)
1.14 µM: TGI (SK-MEL-5 melanoma)
13.6 µM and 86.6 µM: TGI (HOP-92 NSCLC)
> 100 µM: TGI (SF-295 CNS) | TGI (UACC-257 melanoma)
20.6 µM and > 100 µM: TGI (HCT-15 colon)
inactive: GI50 (NCI/ADR-RES ovarian) 5.06 µM and 4.67 µM | GI50 (SK-MEL-28 melanoma) 5.03 µM | GI50 (T-47D breast) > 33.3 µM | GI50 (UACC-257 melanoma) > 100 µM
37.3 µM: TGI (NCI-H522 lung)
33.3 µM: TGI (SK-MEL-28 melanoma) | TGI (UACC-62 melanoma) | TGI (UO-31 renal)
0.0764 µM: TGI (SF-539 CNS)
33.3 µM and > 100 µM: TGI (A549 NSCLC) | TGI (ACHN renal) | TGI (CCRF-CEM leukemia) | TGI (DU-145 prostate) | TGI (EKVX NSCLC) | TGI (HCC-2998 colon) | TGI (HS 578T breast) | TGI (IGROV1 ovarian) | TGI (K-562 leukemia) | TGI (KM12 colon) | TGI (LOX IMVI melanoma) | TGI (MALME-3M melanoma) | TGI (MCF7 breast) | TGI (MOLT-4 leukemia) | TGI (NCI-H226 lung) | TGI (NCI-H23 lung) | TGI (NCI-H460 lung) | TGI (NCI/ADR-RES ovarian) | TGI (OVCAR-4 ovarian) | TGI (OVCAR-5 ovarian) | TGI (OVCAR-8 ovarian) | TGI (PC-3 prostate) | TGI (SF-268 CNS) | TGI (SK-MEL-2 melanoma) | TGI (SK-OV-3 ovarian) | TGI (SN12C renal) | TGI (SNB-19 CNS) | TGI (SNB-75 CNS) | TGI (SW-620 colon) | TGI (TK-10 renal) | TGI (U251 CNS)
33.3 µM and 69.9 µM: TGI (SR leukemia)
3.98 µM and 14.4 µM: TGI (HCT-116 colon)
active: GI50 (BT-549 breast) 0.00333 µM | GI50 (CCRF-CEM leukemia) 0.00333 µM and 0.0234 µM | GI50 (DU-145 prostate) 0.00333 µM | GI50 (HCT-116 colon) 0.00333 µM | GI50 (HOP-62 NSCLC) 0.00333 µM and 0.0296 µM | GI50 (HT29 colon) 0.00333 µM | GI50 (IGROV1 ovarian) 0.00333 µM | GI50 (K-562 leukemia) 0.00333 µM | GI50 (KM12 colon) 0.00333 µM and 0.0298 µM | GI50 (LOX IMVI melanoma) 0.00333 µM and 0.019 µM | GI50 (MCF7 breast) 0.00333 µM | GI50 (MDA-MB-231 breast) 0.00333 µM and 0.0281 µM | GI50 (NCI-H460 lung) 0.00333 µM and 0.0297 µM | GI50 (PC-3 prostate) 0.00333 µM and 0.0223 µM | GI50 (RPMI-8226 leukemia) 0.00333 µM | GI50 (SF-295 CNS) 0.0363 µM | GI50 (SF-539 CNS) 0.02 µM | GI50 (SK-MEL-2 melanoma) 0.00333 µM | GI50 (SK-OV-3 ovarian) 0.00333 µM and 0.0265 µM | GI50 (SNB-19 CNS) 0.00333 µM | GI50 (SR leukemia) 0.00333 µM | GI50 (SW-620 colon) 0.00333 µM | GI50 (UACC-62 melanoma) 0.00333 µM | GI50 (UO-31 renal) 0.0766 µM
11.3 µM and > 100 µM: TGI (786-0 renal)
0.0111 µM: TGI (HL-60(TB) leukemia)
0.0143 µM: TGI (MDA-MB-435)
7.63 µM and 55.6 µM: TGI (RPMI-8226 leukemia)

Source: PubChem BioAssay (NCI)
